In a melting point compilation (Tetko et al.):

| Structure (SMILES) | melting point [°C] |
| --- | --- |
| CCOC(=O)CCc1nc(CC(=O)NC)no1 | 84 to 86 |
| Nc1cnc(-c2cccc(F)c2)nc1 | 112 to 114 |
| Cc1cc(C=O)cnc1Cl | 47 to 49 |
| CC(C)(C)OC(=O)NC1CCN(C(=O)CC(F)(F)F)CC1 | 147 to 149 |
| O=C(O)CNC(=O)OCC(F)(F)F | 98 to 100 |
| O=C1CC(CO)CN1CCc1ccccc1 (stereo not drawn) | 65 to 67 |
| N#Cc1ccc(F)c(CN2CCCC2=O)c1 | 92 to 94 |
| CCCCCc1sc(N)c(C(N)=O)c1C | 129 to 131 |
| O=C1CC2CCCC(C1)N2Cc1ccccc1 | 66 to 68 |
| CNCC(O)COc1ccc([N+](=O)[O-])cc1 (stereo not drawn) | 142 to 144 |
| O=S(=O)(Cl)c1sc(Cl)nc1Cl | 57 to 59 |
| COCCc1nc2cc(N)ccc2o1 | 44 to 46 |
| CN(C)c1ncccc1O | 173 to 175 |
| CN1CCN(CC(N)c2ccccc2)CC1 (stereo not drawn) | 58 to 60 |
| O=C(O)CC12CC3CC(C1)CC(C(F)(F)F)(C3)C2 | 121 to 123 |
| N#CCC(=O)c1ccc(F)cc1 | 84 to 88 |
| O=C(O)C=Cc1ccc(OC(F)F)cc1 | 182 to 184 |
| CC(C)S(=O)(=O)Cc1cccc(N)c1 | 113 to 115 |
| CN1CC(=O)N(CC(=O)O)C1=O | 139 to 141 |

| Structure (SMILES) | melting point [°C] |
| --- | --- |
| CC(Cl)C(=O)N1CCNC1=O (stereo not drawn) | 116 to 120 |
| CC(=O)c1ccc(-n2cncn2)cc1 | 111 to 124 |
| COc1ccc(C(=O)O)cc1S(=O)(=O)N1CCCCCC1 | 190 to 194 |
| Cc1c(I)cccc1[N+](=O)[O-] | 34 to 36 |
| O=[N+]([O-])c1sc(Cl)nc1Cl | 38 to 40 |
| CN(C(=O)CCl)c1nccs1 | 123 to 125 |
| N#CCC1=NC(=O)CS1 | 183 to 185 |
| O=c1[nH]c(-c2ccc(Cl)s2)nc2c1CCC2 | 276 to 278 |
| FC(F)Oc1ccc(CNC23CC4CC(CC(C4)C2)C3)cc1 | 283 to 285 |
| Cc1n[nH]c(-c2ccccn2)n1 | 167 to 169 |
| CN(C)C=CC(=O)C(F)(F)F | 52 to 54 |
| CC1(C)CCc2sc(C(=O)O)cc2C1 | 138 to 140 |
| N#Cc1cc(C(N)=O)c[nH]1 | 245 to 247 |
| CC1CN(Cc2csc(N)n2)CC(C)O1 (stereo not drawn) | 132 to 134 |
| O=C1Cc2cc(S(=O)(=O)Cl)c(Cl)cc2N1 | 185 to 187 |
| CN(C)CCN1CC(C(=O)O)CC1=O (stereo not drawn) | 162 to 164 |
| O=C(NC1CC1)n1ccnc1 | 89 to 91 |
| CCn1cc(Br)cc1C(=O)O | 148 to 150 |
| NC(=O)c1ccc2c(c1)CCCC2 | 140 to 142 |

More lines, now with the values ahead:

| melting point [°C] | Structure (SMILES) |
| --- | --- |
| 65 to 67 | COC(=O)CNc1cccc(F)c1 |
| 120 to 122 | CN(C(=O)c1ccc(Cl)c(N)c1)c1ccccc1 |
| 149 to 151 | CCc1c(C)nn(-c2cccc(C(=O)O)c2)c1C |
| 181 to 183 | COC(=O)c1cc2ccc(Cl)cc2[nH]1 |
| 108 to 110 | Cc1ccccc1SCC(=O)O |
| 50 to 52 | Clc1nc(-c2cccc(Oc3ccccc3)c2)no1 |
| 230 to 232 | NC(=O)c1ccn(-c2ccc(N)cc2)n1 |
| 64 to 69 | COc1cc(C=O)ccc1OC(=O)c1cccs1 |
| 258 to 260 | O=c1[nH]c2ccccc2nc1NO |
| 160 to 162 | Cc1ccc(/C=C/C(=O)O)s1 |
| 125 to 127 | CSCCC(C(=O)O)N1C(=O)c2ccccc2C1=O (stereo not drawn) |
| 123 to 125 | Clc1nc(-c2cccs2)nc2ccccc12 |
| 98 to 100 | CNS(=O)(=O)c1cccc(S(=O)(=O)Cl)c1 |
| 149 to 151 | Cc1nc(Cl)ccc1C(=O)O |
| 56 to 58 | CC(C)(Cc1cccc(Cl)c1)C(=O)O |
| 105 to 107 | Cc1ccccc1CNC(=O)CCl |
| 267 to 269 | O=C(Nc1cc(Cl)ccc1C(=O)O)c1cccs1 |
| 180 to 182 | C=CCNS(=O)(=O)c1cccc(C(=O)O)c1 |
| 122 to 124 | CC(C(=O)O)c1ccc(S(=O)(=O)N(C)C)cc1 (stereo not drawn) |
| 53 to 55 | CC(C)c1nn(-c2ccccc2)c(Cl)c1C=O |
